Results reported in EP0454060B1, “3-(Mercaptoalkyl)-quinazoline-2,4(1H,3H)-diones, processes for their preparation, and pharmaceutical compositions” (priority 1990, dated 1991).

Tests used:
[1] = system: Vesicular-stomatitis Indiana; assay: Plaque reduction test on primary HEZ; format: cell-based
[2] = system: SE-spezifischen IgM- und IgG-PBZ; assay: Plaque test after damage of the immune system by cyclophosphamide (immunorestoration); format: in vivo, CBA-Inzuchtmäuse; settings: ZY 150 mg/kg day -1 + 2 mg/kg oral days -2 to +2
Excerpt: Der Nachweis von immunrestaurativen Wirkungen erfolgte nach Schädigung des Immunsystems ebenfalls mittels • Plaque-Test zum Nachweis von SE-spezifischen IgM- und IgG-PBZ sowie durch • Rosettentest.
Aus den Werten wird deutlich, daß die Verbindungen der allgemeinen Formel I einen gut nachweisbaren Effekt auf die Effektor-T-Lymphozyten-abhängige verzögerte Uberempfindlichkeit haben. Kontaktdermatitis-Werte ab 120 (≙ 20 % Steigerung gegenüber der Kontrolle) bzw. unter 80 werden als Nachweis eines stimulatorischen bzw. suppressorischen Effektes angesehen. Antikörpertiter-Differenzen von >+1 bzw. <-1 verdeutlichen den stimulatorischen bzw. suppressorischen Effekt der Substanzen auf die humorale Immunantwort. 2. Untersuchungen zur immunstimulierenden Wirkung • 2.1 Plaque-Test zum Nachweis von SE-spezifischen IgM- und IgG-PBZ Zur Prüfung immunstimulierender Effekte wurde u. a. auch der Einfluß von Verbindungen der allgemeinen Formel I auf die humorale Immunantwort an Mäusen des Inzuchtstammes CBA und mittels Hämolyse-Plaque-Test (HPT) untersucht. Diese Technik erlaubt die quantitative und getrennte Erfassung IgM- und IgG-Antikörper produzierender Zellen (= Plaque bildende Zellen; PBZ). Die Immunisierung mit Schaferythrozyten (SE) erfolgte am Tag 0, die Substanzapplikation (Tagesdosis 1.10^-5 mol/kg Körpermasse; peroral) an den Tagen -1 bis +3 (zur Erfassung der IgM-PBZ) bzw. an den Tagen +1 bis +5 (zur Erfassung der IgG-PBZ). • 2.2 Ergebnisse: Durch tägliche und über 5 Tage gehende Gabe von 2,0 mg der Verbindung gemäß Beispiel 1 pro kg Körpermasse konnte die Zahl der IgM-PBZ auf einen Durchschnittswert von 352 % im Vergleich zur Kontrolle (100 %) gesteigert werden. Die gleiche Form der Behandlung führte zu einer Erhöhung der IgG-PBZ auf 497 % (Kontrolle: 100 %). In beiden Fällen erwies sich die Differenz zur Kontrolle im t-Test mit p < 0,001 als signifikant. Es wird deutlich, daß eine über 5 Tage gehende tägliche Behandlung mit der Verbindung gemäß Beispiel 1 bei der CBA-Maus eine hochsignifikante Steigerung SE-spezifischer IgM- und IgG-PBZ hervorruft. • 2.3 Rosettentest (SE-spezifische Rosetten) Nach der BURNET'schen Theorie tragen die Lymphozyten auf ihrer Oberfläche Immunglobulin-Rezeptoren, die gegen ein bestimmtes Antigen gerichtet und durch eine Reaktion mit dem spezifischen Antigen nachweisbar sind. Die Bestimmung der Anzahl an rosettenbildenden Zellen (RBZ) kann als Maß für die Stärke einer anlaufenden Immunreaktion dienen und folgend auch Effekte im Sinne einer Suppression oder Stimulierung zellproliferativer Prozesse wiedergeben. Drei Tage nach der intravenösen Immunisierung mit 2·10^5 Schaferythrozyten (SE) in 0,2 ml physiologischer Kochsalzlösung wurden die Versuchstiere durch Überstrecken getötet, die Milz entnommen und unter Zugabe von Parker-Medium (pH 7,4) durch Müller-Gaze gerieben. Die Arbeiten zur Gewinnung der Zellsuspension wurden im Eiswasserbad (ca 0 bis 4 °C) durchgeführt. In einer Zählkammer nach Neubauer erfolgte die Bestimmung der Zelldichte, und anschließend wurde die für alle Versuchsansätze konstante Zellzahl von 1·10^7 kernhaltigen Zellen (KHZ)/ml Medium eingestellt. 0,9 ml der Milzzellsuspension (1·10^7 KHZ/ml) wurden dann mit 0,1 ml einer 5 %igen gewaschenen Schaferythrozytensuspension versetzt und 24 Stunden bei 4 °C inkubiert. […] 3. Untersuchungen zu immunrestaurativen Effekten 3.1 Der Nachweis der immunrestaurativen Wirksamkeit von Verbindungen der allgemeinen Formel I wurde u. a. dadurch geführt,daß das Immunsystem der Versuchstiere (CBA-Inzuchtmäuse) durch Chemotherapie (Zyklophosphamid, Carageenan, Iloprost) bzw. Bestrahlung geschädigt wurde. Die Prüfung erfolgte u. a. mittels folgender oben erläuterter Techniken: • Plaque-Test zum Nachweis von SE-spezifischen IgM- und IgG-PBZ, • Rosettentest. […]

Vaccinia Lister = assay: Plaque reduction test on primary HEZ; settings: mean of two experiments
[3] = system: SE-spezifischen IgM- und IgG-PBZ; assay: Haemolysis plaque test (immunostimulation); format: in vivo, Maus (Inzuchtstamm CBA); settings: 2,0 mg/kg daily over 5 days, peroral, p < 0,001
Excerpt: Der Nachweis immunstimulierender Effekte wurde weiterhin an der Maus (Inzuchtstamm CBA) und u. a. mit Hilfe folgender Nachweismethoden geführt: • Plaque-Test zum Nachweis von SE-spezifischen IgM- und IgG-PBZ, • Rosettentest.
Aus den Werten wird deutlich, daß die Verbindungen der allgemeinen Formel I einen gut nachweisbaren Effekt auf die Effektor-T-Lymphozyten-abhängige verzögerte Uberempfindlichkeit haben. Kontaktdermatitis-Werte ab 120 (≙ 20 % Steigerung gegenüber der Kontrolle) bzw. unter 80 werden als Nachweis eines stimulatorischen bzw. suppressorischen Effektes angesehen. Antikörpertiter-Differenzen von >+1 bzw. <-1 verdeutlichen den stimulatorischen bzw. suppressorischen Effekt der Substanzen auf die humorale Immunantwort. 2. Untersuchungen zur immunstimulierenden Wirkung • 2.1 Plaque-Test zum Nachweis von SE-spezifischen IgM- und IgG-PBZ Zur Prüfung immunstimulierender Effekte wurde u. a. auch der Einfluß von Verbindungen der allgemeinen Formel I auf die humorale Immunantwort an Mäusen des Inzuchtstammes CBA und mittels Hämolyse-Plaque-Test (HPT) untersucht. Diese Technik erlaubt die quantitative und getrennte Erfassung IgM- und IgG-Antikörper produzierender Zellen (= Plaque bildende Zellen; PBZ). […]

With `O=c1[nH]c2ccccc2c(=O)n1CCS` [Beispiel 1, 3-(2-Mercaptoethyl)-chinazolin-2,4(1H,3H)-dion] the “Plaquereduktion in % zur Viruskontrolle auf primären HEZ” value ([1]; 125 µmol/l, mean of two experiments) was 15%, the “Plaquereduktion in % zur Viruskontrolle auf primären HEZ” value ([1]; 250 µmol/l, footnote x = keine signifikante Wirkung) was 45 ^x % and the “Plaquereduktion in % zur Viruskontrolle auf primären HEZ” value ([1]; 62,5 µmol/l, mean of two experiments, 62.5 µM) was 0%. For the same molecule, the “IgM-PBZ/10^6” value ([2]; test day + 3) was 31,7 ± 26,6 /10^6, the “IgM-PBZ/10^6” value ([2]; test day + 4) was 59,8 ± 26,6 /10^6 and the “IgM-PBZ/10^6” value ([2]; test day + 5, p <0,05) was 125,2 ± 32,7 /10^6. For the same molecule, the “IgM-PBZ/10^6” value ([2]; test day + 6) was 47,8 ± 31,2 /10^6, the “IgG-PBZ/10^6 Milzzellen” value ([2]; test day + 6, p <0,05) was 88,3 ± 24,8 /10^6 Milzzellen and the “IgG-PBZ/10^6 Milzzellen” value ([2]; test day + 7, p <0,01) was 128,3 ± 28,6 /10^6 Milzzellen. The “IgG-PBZ/10^6 Milzzellen” value ([2]; test day + 8) was 58,3 ± 43,6 /10^6 Milzzellen, the “Plaquereduktion in % zur Viruskontrolle auf primären HEZ” value (Vaccinia Lister; 125 µmol/l) was 96% and the “Plaquereduktion in % zur Viruskontrolle auf primären HEZ” value (Vaccinia Lister; 250 µmol/l) was 100%. For the same molecule, the “Plaquereduktion in % zur Viruskontrolle auf primären HEZ” value (Vaccinia Lister; 31,25 µmol/l, 31.25 µM) was 87%, the “Plaquereduktion in % zur Viruskontrolle auf primären HEZ” value (Vaccinia Lister; 62,5 µmol/l, 62.5 µM) was 92% and the “IgG-PBZ (Kontrolle: 100 %)” value ([3]; days +1 to +5) was 497%. The “Zahl der IgM-PBZ im Vergleich zur Kontrolle (100 %)” value ([3]; days -1 to +3, average value) was 352%.
